The values that follow come from paper PMC2857344 (2010).

For test [1], the system named is P10 (3MX-binding aptamer) (RNA, aptamer, 2-aminopurine at 10 (replaces A10)) GGCGAUACCAGCCGAAAGGCCAUUGGAAGCGUC
The test is described as follows: ITC. The conditions noted are these: 100 mM NaCl, 10 mM MgCl2; 100 mM HEPES, 0.1 mM EDTA, pH 7.5, 25 °C.

For test [2], the system named is P27 (3MX-binding aptamer) (RNA, aptamer, 2-aminopurine at 27) GGCGAUACCAGCCGAAAGGCCAUUGGAAGCGUC
The test is described as follows: steady-state 2-aminopurine fluorescence titration. Particulars: 100 mM NaCl, 10 mM MgCl2; 100 mM HEPES, 0.1 mM EDTA, pH 7.5, 25 °C; 100 nM RNA.

In test [3] the test system is WT theophylline-binding aptamer (RNA, aptamer) GGCGAUACCAGCCGAAAGGCCCUUGGCAGCGUC
The test is described as follows: ITC. The conditions noted are these: 100 mM NaCl, 10 mM MgCl2; 100 mM HEPES, 0.1 mM EDTA, pH 7.5, 25 °C.

Test [4] has as its system WT 3MX-binding aptamer (RNA, aptamer) GGCGAUACCAGCCGAAAGGCCAUUGGAAGCGUC
The test is described as follows: ITC. The conditions noted are these: 100 mM NaCl, 10 mM MgCl2; 100 mM HEPES, 0.1 mM EDTA, pH 7.5, 25 °C.

Test [5] deals with P10 (theophylline-binding aptamer) (RNA, aptamer, 2-aminopurine at 10 (replaces A10)) GGCGAUACCAGCCGAAAGGCCCUUGGCAGCGUC
The test is described as follows: ITC. The conditions noted are these: 100 mM NaCl, 10 mM MgCl2; 100 mM HEPES, 0.1 mM EDTA, pH 7.5, 25 °C.

The subject of test [6] is P10Z11 (theophylline-binding aptamer) (RNA, aptamer, 2-aminopurine at 10 (replaces A10); 7-deazaguanine at 11) GGCGAUACCAGCCGAAAGGCCCUUGGCAGCGUC
Kind of test: ITC. The conditions noted are these: 100 mM NaCl, 10 mM MgCl2; 100 mM HEPES, 0.1 mM EDTA, pH 7.5, 25 °C.

`Cn1c(=O)[nH]c(=O)c2[nH]cnc21`: the Kd in test [1] is 24 ± 5 µM; in test [2], 3.6 ± 0.3 µM; in test [3], 1.6 ± 0.5 µM; in test [4] it was 2.7 ± 2.0 µM.
On to `Cn1c(=O)c2[nH]cnc2n(C)c1=O`, for which the Kd in test [3] came out at 0.86 ± 0.12 µM; in test [5] it was 9.4 ± 0.8 µM; in test [6], 9.4 ± 0.7 µM.

One may read the Kd as the constant that tells how readily two partners part at equilibrium. Read a high Kd as lower affinity.
